Test results reported in patent US20240058251A1, “Composition for Oral Cavity” (SUNSTAR SUISSE SA, priority 2020, published 2024).

System: Streptococcus oralis spp. tigurinus
Assay: S. oralis culture test (Alamar Blue fluorescence; proliferation rate relative to a control containing no sample solution)
Type: cell-based
Protocol: S. oralis was cultured in BHI medium (Brain Heart Infusion broth (manufactured by BD)). After the turbidity of the medium at a wavelength of 660 nm was measured, the culture solution was diluted with BHI medium until the turbidity was 0.1. The diluted medium was used as a bacterial solution. As S. oralis, Streptococcus oralis spp. tigurinus was used.
Sample solutions of Examples and Comparative Examples were prepared by dissolving an amino acid and a sugar in the BHI medium. The concentrations of the amino acid in the sample solutions were set at 0 mg/ml or 15 mg/ml and the concentrations of the sugar were set at 20 mg/ml.
To the wells of a 96-well plate, the bacterial solution (100 μl) and a sample solution (100 μl) were added. The 96-well plate was subjected to culturing performed at 37° C. in anaerobic conditions for 24 hours. After completion of the culture, the supernatant was removed and 110 μl of an Alamar Blue solution (manufactured by Invitrogen) diluted 11-fold with phosphate buffer saline (PBS), was added. Fluorescence intensity was measured at an excitation wavelength of 545 nm and a fluorescence wavelength of 590 nm. A relative value thereof to the fluorescence intensity of a control containing no sample solution was calculated as the proliferation rate of S. oralis. The proliferation rate calculated was evaluated based on the following evaluation criteria. The results are shown in Table 1. • A: 10 or more • B: 5 or more and less than 10 • C: less than 5 […]
The proliferation rate of S. oralis in the case in which galactose was used as the sugar and citrulline was used as the amino acid, was measured. The test method was the same as in Test 1. The concentrations of galactose and citrulline in sample solutions and the measurement results of proliferation rates are shown in Table 3. In Test 3, the concentrations of galactose in sample solutions were set at 0 mg/ml or 2 mg/ml and the concentrations of citrulline were set at 0.5 to 3.0 mg/ml.
The proliferation rate of S. oralis was measured in the case in which 2′-fucosyllactose was used as the sugar and arginine was used as the amino acid. The test method was the same as in Test 1. The concentrations of 2′-fucosyllactose and arginine in sample solutions and the measurement results of proliferation rates are shown in Table 4. […]

In the case of `N=C(N)NCCC[C@H](N)C(=O)O` [Comparative Example 1, Arginine], the “Effect of promoting proliferation of S. oralis (in words)” value (“Effect” for short) (Test 1) is reported as “not obtained” and the “Evaluation of proliferation rate” value (Test 1, sample solution in BHI medium: sugar 20 mg/ml, amino acid 0 or 15 mg/ml, 37° C., anaerobic, 24 hours) is reported as “C (less than 5)”.
In the case of `NC(=O)NCCC[C@H](N)C(=O)O` [Comparative Example 8, Citrulline], the “Effect” value (Test 3, citrulline 0.5 to 3.0 mg/ml, galactose 0 or 2 mg/ml) is reported as “the effect of proliferating S. oralis was promoted but the level of the proliferation promotion effect decreased as the concentration of citrulline increased”, the Proliferation rate (Test 3, galactose 0 mg/ml, citrulline 0.5 mg/ml) is reported as 3.8 and the Proliferation rate (Test 3, galactose 0 mg/ml, citrulline 1.0 mg/ml) is reported as 2.7. The Proliferation rate (Test 3, galactose 0 mg/ml, citrulline 2.0 mg/ml) was 1.8.
`C[C@@H]1O[C@@H](O[C@H]2[C@H](O[C@H]3[C@H](O)[C@@H](O)C(O)O[C@@H]3CO)O[C@H](CO)[C@H](O)[C@@H]2O)[C@@H](O)[C@H](O)[C@@H]1O` (some centres unmarked) [Comparative Example 9, 2′-Fucosyllactose] showed a Proliferation rate (Test 4, 2′-fucosyllactose 1 mg/ml, arginine 0 mg/ml) of 1.0, a Proliferation rate (Test 4, 2′-fucosyllactose 2 mg/ml, arginine 0 mg/ml) of 1.5 and a Proliferation rate (Test 4, 2′-fucosyllactose 3 mg/ml, arginine 0 mg/ml) of 0.9. For the same compound, the Proliferation rate (Test 4, 2′-fucosyllactose 4 mg/ml, arginine 0 mg/ml) was 0.6 and the “Effect” value (Test 4, 2′-fucosyllactose 1 to 4 mg/ml, arginine 0 or 1.5 mg/ml) was “scarcely observed”.
